Reference: PubChem BioAssay AID1963851 (Molecular Pharmacology Branch, DTP, NCI, 2024)

Test system: 188146-221-R-J1-PDC complex spheroid viability
Assay: Anticancer human tumor 188146-221-R-J1-PDC patient-derived colon adenocarcinoma cell line growth inhibition [POLQ]
Details: for IC50: curve of first compound; for viability, T/C: stronger effect = lower value
Outline: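 PDC + HUVEC + MSC complex spheroids; POLQ inhibitors ± partner drugs; top conc. at/near clinical Cmax, else 10 microM (SN-38 1 microM), half-log dilutions; 37 degrees C, 5% CO2.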

[1] = second compound 0.0316 µM, first compound 0.0316 µM
[2] = second compound 0.0316 µM, first compound 0.1 µM
[3] = second compound 0.0316 µM, first compound 0.316 µM
[4] = second compound 0.0316 µM, first compound 1 µM
[5] = second compound 0.0316 µM, first compound 3.16 µM
[6] = second compound 0.0316 µM, first compound 10 µM
[7] = second compound 0.1 µM, first compound 0.0316 µM
[8] = second compound 0.1 µM, first compound 0.1 µM
[9] = second compound 0.1 µM, first compound 0.316 µM
[10] = second compound 0.1 µM, first compound 1 µM
[11] = second compound 0.1 µM, first compound 3.16 µM
[12] = second compound 0.1 µM, first compound 10 µM
[13] = second compound 0.316 µM, first compound 0.0316 µM
[14] = second compound 0.316 µM, first compound 0.1 µM
[15] = second compound 0.316 µM, first compound 0.316 µM
[16] = second compound 0.316 µM, first compound 1 µM
[17] = second compound 0.316 µM, first compound 3.16 µM
[18] = second compound 0.316 µM, first compound 10 µM
[19] = second compound 1 µM, first compound 0.0316 µM
[20] = second compound 1 µM, first compound 0.1 µM
[21] = second compound 1 µM, first compound 0.316 µM
[22] = second compound 1 µM, first compound 1 µM
[23] = second compound 1 µM, first compound 3.16 µM
[24] = second compound 1 µM, first compound 10 µM
[25] = second compound 3.16 µM, first compound 0.0316 µM
[26] = second compound 3.16 µM, first compound 0.1 µM
[27] = second compound 3.16 µM, first compound 0.316 µM
[28] = second compound 3.16 µM, first compound 1 µM
[29] = second compound 3.16 µM, first compound 3.16 µM
[30] = second compound 3.16 µM, first compound 10 µM
[31] = second compound 10 µM, first compound 0.0316 µM
[32] = second compound 10 µM, first compound 0.1 µM
[33] = second compound 10 µM, first compound 0.316 µM
[34] = second compound 10 µM, first compound 1 µM
[35] = second compound 10 µM, first compound 3.16 µM
[36] = second compound 10 µM, first compound 10 µM
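Note: spheroids exposed to compounds for seven days.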
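Throughout, for viability, T/C: 100% = DMSO vehicle control viability.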

C=CC(=O)N1CCN(c2nc(=O)n(-c3c(C)ccnc3C(C)C)c3nc(-c4c(O)cccc4F)c(F)cc23)C(C)C1 (stereo unspecified) + Cc1cccc(N(C)C(=O)C2C(O)CCN2c2nc(C)cc(C(F)(F)F)c2C#N)c1
IC50 (second compound 0.0316 µM): > 10000 nM | IC50 (second compound 0.1 µM): > 10000 nM | IC50 (second compound 0.316 µM): > 10000 nM | IC50 (second compound 1 µM): > 10000 nM | IC50 (second compound 3.16 µM): > 10000 nM | IC50 (second compound 10 µM): > 10000 nM | viability, T/C [1]: 104% | viability, T/C [2]: 103% | viability, T/C [3]: 93% | viability, T/C [4]: 107% | viability, T/C [5]: 97% | viability, T/C [6]: 83.8% | viability, T/C [7]: 108% | viability, T/C [8]: 105% | viability, T/C [9]: 91.9% | viability, T/C [10]: 103% | viability, T/C [11]: 92.8% | viability, T/C [12]: 89% | viability, T/C [13]: 101% | viability, T/C [14]: 105% | viability, T/C [15]: 103% | viability, T/C [16]: 95.5% | viability, T/C [17]: 85.9% | viability, T/C [18]: 81.5% | viability, T/C [19]: 95.6% | viability, T/C [20]: 107% | viability, T/C [21]: 102% | viability, T/C [22]: 104% | viability, T/C [23]: 84.7% | viability, T/C [24]: 73.3% | viability, T/C [25]: 98.7% | viability, T/C [26]: 104% | viability, T/C [27]: 97.3% | viability, T/C [28]: 100% | viability, T/C [29]: 94.6% | viability, T/C [30]: 83.4% | viability, T/C [31]: 100% | viability, T/C [32]: 82.3% | viability, T/C [33]: 91.8% | viability, T/C [34]: 84.8% | viability, T/C [35]: 92.6% | viability, T/C [36]: 77.2%

COc1cc(C2c3cc4c(cc3C(OC3OC5COC(C)OC5C(O)C3O)C3COC(=O)C23)OCO4)cc(OC)c1O (stereo unspecified) + Nc1ccc(C#CCN(C(=O)Cc2ncc(C(F)(F)F)cc2C(F)(F)F)c2ccc(F)cc2)nn1
IC50 (second compound 0.0316 µM): 597 nM | IC50 (second compound 0.1 µM): 789 nM | IC50 (second compound 0.316 µM): 582 nM | IC50 (second compound 1 µM): 626 nM | IC50 (second compound 3.16 µM): 625 nM | IC50 (second compound 10 µM): 633 nM | viability, T/C [1]: 87.2% | viability, T/C [2]: 95.2% | viability, T/C [3]: 61.4% | viability, T/C [4]: 40.7% | viability, T/C [5]: 24.9% | viability, T/C [6]: 22.9% | viability, T/C [7]: 89.5% | viability, T/C [8]: 87.3% | viability, T/C [9]: 65.9% | viability, T/C [10]: 48.2% | viability, T/C [11]: 27.7% | viability, T/C [12]: 28.5% | viability, T/C [13]: 97.1% | viability, T/C [14]: 97.8% | viability, T/C [15]: 66.3% | viability, T/C [16]: 35.5% | viability, T/C [17]: 25% | viability, T/C [18]: 21.4% | viability, T/C [19]: 97.5% | viability, T/C [20]: 79.3% | viability, T/C [21]: 67.6% | viability, T/C [22]: 39.4% | viability, T/C [23]: 24.6% | viability, T/C [24]: 22.2% | viability, T/C [25]: 100% | viability, T/C [26]: 88.5% | viability, T/C [27]: 64.2% | viability, T/C [28]: 40.7% | viability, T/C [29]: 27.1% | viability, T/C [30]: 25% | viability, T/C [31]: 86.8% | viability, T/C [32]: 78.4% | viability, T/C [33]: 58.8% | viability, T/C [34]: 47.4% | viability, T/C [35]: 25% | viability, T/C [36]: 29%

COc1cccc2c1C(=O)c1c(O)c3c(c(O)c1C2=O)CC(O)(C(=O)CO)CC3OC1CC(N)C(O)C(C)O1 (stereo unspecified) + COC1C(OC(N)=O)C(O)C(Oc2ccc3c(O)c(NC(=O)c4ccc(O)c(CC=C(C)C)c4)c(=O)oc3c2C)OC1(C)C
IC50 (second compound 0.0316 µM): 154 nM | IC50 (second compound 0.1 µM): 143 nM | IC50 (second compound 0.316 µM): 162 nM | IC50 (second compound 1 µM): 145 nM | IC50 (second compound 3.16 µM): 106 nM | IC50 (second compound 10 µM): 151 nM | viability, T/C [1]: 90.2% | viability, T/C [2]: 59.5% | viability, T/C [3]: 33.8% | viability, T/C [4]: 13.1% | viability, T/C [5]: 0.29% | viability, T/C [6]: 0.43% | viability, T/C [7]: 91.8% | viability, T/C [8]: 57.5% | viability, T/C [9]: 32.5% | viability, T/C [10]: 11.4% | viability, T/C [11]: 0.37% | viability, T/C [12]: 0.4% | viability, T/C [13]: 92.7% | viability, T/C [14]: 61.1% | viability, T/C [15]: 34% | viability, T/C [16]: 16.4% | viability, T/C [17]: 0.2% | viability, T/C [18]: 0.41% | viability, T/C [19]: 94.9% | viability, T/C [20]: 54% | viability, T/C [21]: 40.1% | viability, T/C [22]: 9.16% | viability, T/C [23]: 0.41% | viability, T/C [24]: 0.44% | viability, T/C [25]: 85.3% | viability, T/C [26]: 47.1% | viability, T/C [27]: 35.4% | viability, T/C [28]: 8.24% | viability, T/C [29]: 0.22% | viability, T/C [30]: 0.55% | viability, T/C [31]: 77.9% | viability, T/C [32]: 56.6% | viability, T/C [33]: 36.5% | viability, T/C [34]: 9.76% | viability, T/C [35]: 0.33% | viability, T/C [36]: 0.51%
